Results reported in US8932986B2, “Herbicidal composition” (Sumitomo Chemical Company, Limited, priority 2012, dated 2015).

What was measured:
[1] = tested on: Digitaria ciliaris; experiment: Herbicidal activity, soil spray on day of sowing, pot test in greenhouse, evaluated after ten days (Example 3); format: in vivo; conditions: 2 g/ha; sprayed on day of sowing; ten days after spray treatment; scale 0 to 100
Description: (§1) Digitaria ciliaris was sowed on a plastic pot filled with a soil. Following the sowing, on the day of the sowing, a mixed liquid of flumioxazin, pyrasulfotole, and mefenpyr-diethyl was sprayed uniformly so that the amounts of the agents might become those as shown in Table 3 in a sprayed water amount of 500 L/ha. The mixed liquid of flumioxazin, pyrasulfotole, and mefenpyr-diethyl was prepared by dissolving the respective compounds in prescribed amounts separately in acetone containing 2% (w/v) of Tween 20 (surfactant, produced by Tokyo Chemical Industry Co., Ltd.), diluting the respective solutions with water and then combining them, followed by dilution with water so that the final acetone concentration of the spray liquid might be 10% by volume. After the spray treatment, the pot was carried into a greenhouse. Ten days after the spray treatment, the herbicidal activity to Digitaria ciliaris was evaluated.

[2] = tested on: Digitaria ciliaris; experiment: Herbicidal activity, soil spray on day of sowing, pot test in greenhouse, evaluated after seven days (Example 2); format: in vivo; conditions: 20 g/ha; sprayed on day of sowing; seven days after spray treatment; scale 0 to 100
Description: as §1, with “those” for “those as”, “2” for “3”, “Seven” for “Ten”

`C#CCN1C(=O)COc2cc(F)c(N3C(=O)C4=C(CCCC4)C3=O)cc21` [Flumioxazin] was tested, and the “Herbicidal activity Digitaria ciliaris” value [1] was 40 and the “Herbicidal activity Digitaria ciliaris” value [2] was 10.
